Experimental findings from patent US12364702B2, “Highly active sting protein agonist compound” (ADLAI NORTYE BIOPHARMA CO., LTD., priority 2018, dated 2025) are described below.

Read-outs that look alike come from different tables or passages of the source.

Format in all cases: cell-based
Experiment [1] concerns the target T1, STING WT variant (Homo sapiens, UniProt Q86WV6).
T1 construct: host or cells: HEK-Blue ISG KO-STING cells (Invivogen, hkb-kostg)
Nature of the experiment: SEAP reporter assay in HEK-Blue ISG KO-STING cells transfected with STING WT variant (Method 2). Set-up: key: ratio of compound SEAP signal to 0.5% DMSO. The settings on record: 1 ng STING vector (WT variant), compound 2.5 uM, 24 h, SEAP signal vs 0.5% DMSO. The text has this: (§1) Activation of STING can be determined using a SEAP reporter assay in HEK-Blue™ ISG KO-STING cells (Invivogen, cat #hkb-kostg) transfected with plasmids expressing STING variants (WT & HAQ) (referred to WO2017/175147A1). STING variants (WT & HAQ) vector were constructed based on STING-232H vector (Origene, RC208418). GFP vector (VT2069) was bought from Youbio. The detailed protocol as follows: HEK-Blue™ ISG KO-STING cells were harvest and seeding into 96 well plate and the final cell number was 0.8×10^5 cells/well. Transfections were prepared using Lipofectamine 2000 (Invitrogen, Cat #11668-027) following the manufacturer's instructions (Lipo2000/DNA=1/10), 20 ul of transfection suspension containing 1 ng (WT variant) or 0.0625 ng (HAQ variant) STING vector was added to cell culture plate and incubated at 37° C., 5% CO2 for 24 hours. After 24 hours incubation, compounds were added at proper concentration, the final DMSO concentration was 0.5%. After 24 h incubation, the supernatant was collected to detect SEAP signal using Great EscAPe SEAP chemiluminescence KIT (Clontech, cat #631738) and cells were collected to detect cell viability using CellTiter-Glo Luminescent Cell Viability Assay (Promega, cat #G7573) following the manufacturer's instructions. The data were described by the ratio of the stimulating signal of compounds to 0.5% DMSO.
On the technique in general: Reporter assays use an easily measured gene product as a stand-in for the process of interest.

In experiment [2] the target is T2, STING HAQ variant (Homo sapiens, UniProt Q86WV6, G230A/R293Q/R71H).
T2 construct: host or cells: HEK-Blue ISG KO-STING cells (Invivogen, hkb-kostg)
T2 sequence (Q86WV6 whole entry R71H/G230A/R293Q): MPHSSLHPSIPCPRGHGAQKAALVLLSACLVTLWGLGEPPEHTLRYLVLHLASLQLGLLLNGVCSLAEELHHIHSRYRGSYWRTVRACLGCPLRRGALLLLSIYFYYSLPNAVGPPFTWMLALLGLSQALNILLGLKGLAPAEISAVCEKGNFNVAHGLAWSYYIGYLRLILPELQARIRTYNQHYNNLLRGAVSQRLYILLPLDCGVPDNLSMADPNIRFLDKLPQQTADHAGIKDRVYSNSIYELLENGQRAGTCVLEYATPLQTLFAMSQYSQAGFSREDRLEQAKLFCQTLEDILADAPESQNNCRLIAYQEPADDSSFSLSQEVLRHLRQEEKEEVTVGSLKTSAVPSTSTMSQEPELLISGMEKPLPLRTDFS
The experiment is described as follows: SEAP reporter assay in HEK-Blue ISG KO-STING cells transfected with STING HAQ variant (Method 2). Set-up: key: ratio of compound SEAP signal to 0.5% DMSO. The settings on record: 0.0625 ng STING vector (HAQ variant), compound 5 uM, 24 h, SEAP signal vs 0.5% DMSO.
Text: as §1

In the next experiment the target is STING (Homo sapiens, UniProt Q86WV6). The experiment is described as follows: IFN-β secretion from THP1 by STING activation (hIFNβ ELISA). In outline: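 THP1 cells (2×10^6 cells/ml) exposed 24 h at 37° C, 5% CO2 to 8-point, 3-fold compound dilutions, 0.2% DMSO final, top dose set by solubility. Secreted IFN-β in supernatant measured by human IFNβ ELISA; EC50 from curve fitting.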
STING, sequence (Q86WV6 whole entry): as the sequence (Q86WV6 whole entry R71H/G230A/R293Q) above, with H71R, A230G, Q293R counted along it
(In general: ELISA stands for enzyme-linked immunosorbent assay.)

The target of experiment [3] is T1, STING WT variant. Nature of the experiment: SEAP reporter assay in HEK-Blue ISG KO-STING cells transfected with STING WT variant (Method 1). As to conditions: 1 ng STING vector, compound 2.5 uM, 24 h, SEAP signal vs 0.5% DMSO. In outline:
(§2)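 HEK-Blue ISG KO-STING cells transfected with 1 ng STING variant plasmid for 24 h at 37 °C, then compound-treated 24 h (0.5% DMSO final). SEAP chemiluminescence read in supernatant; viability by CellTiter-Glo. Values are compound signal relative to 0.5% DMSO.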

In experiment [4] the target is T2, STING HAQ variant. Nature of the experiment: SEAP reporter assay in HEK-Blue ISG KO-STING cells transfected with STING HAQ variant (Method 1). The settings on record: 1 ng STING vector, compound 5 uM, 24 h, SEAP signal vs 0.5% DMSO. A digest of the protocol:
as §2

[5] abbreviates: THP1 cells; 24 h incubation; IFN-β in supernatant; top dose set according to solubility.
[6] abbreviates: THP1 cells; 24 h incubation; IFN-β in supernatant; top dose set according to solubility; read-out: hIFNβ ELISA (EC50).

A word on the EC50: it is the concentration that produces a half-maximal response. As to `CCn1nc(C)cc1C(=O)Nc1nc2cc(C(N)=O)cc(OCCCN)c2n1CCC[C@H]1COc2cc(C(N)=O)cc3nc(NC(=O)c4c(F)c(C)nn4CC)n1c23.Cl` [Example 51, (S)-3-(3-(7-(3-aminopropoxy)-5-carbamoyl-2-(1-ethyl-3-methyl-1H-pyrazole-5-carboxamido)-1H-benzo[d]imidazol-1-yl)propyl)-2-(1-ethyl-4-fluoro-3-methyl-1H-pyrazole-5-carboxamido)-3,4-dihydro-5-oxa-1,2a-diazaacenaphthylene-7-carboxamide hydrochloride], the “Fold change related to DMSO control WT” value on STING WT variant [1] amounted to 9.66. In addition, on STING HAQ variant [2], the “Fold change related to DMSO control HAQ” value is 11.97. Also, at STING (read-out: hIFNβ ELISA (EC50); THP1 cells; 24 h incubation; IFN-β in supernatant; top dose set according to solubility), the EC50 is more than 50 µM.

On to `CCn1nc(C)cc1C(=O)Nc1nc2cc(C(N)=O)cc(OCCCNC(=O)CN3CCOCC3)c2n1CCC[C@H]1COc2cc(C#N)cc3nc(NC(=O)c4cc(C)nn4CC)n1c23` [Example 47, (S)-1-(3-(7-cyano-2-(1-ethyl-3-methyl-1H-pyrazole-5-carboxamido)-3,4-dihydro-5-oxa-1,2a-diazaacenaphthylen-3-yl)propyl)-2-(1-ethyl-3-methyl-1H-pyrazole-5-carboxamido)-7-(3-(2-morpholinoacetamido)propoxy)-1H-benzo[d]imidazole-5-carboxamide], for which the “Fold change related to DMSO control WT” value at STING WT variant [1] turned out to be 9.80. Further, the “Fold change related to DMSO control HAQ” value at STING HAQ variant [2] is 9.16. For the same compound, on STING (setting [5]), the “hIFNβ ELISA (EC50, μM)” value was “inactive”.

For `CCn1nc(C)cc1C(=O)Nc1nc2cc(C(N)=O)cc(OCCCNC(=O)CN3CC(OC)C3)c2n1CCC[C@H]1COc2cc(C(N)=O)cc3nc(NC(=O)c4cc(C)nn4CC)n1c23` [Example 43, (S)-3-(3-(5-carbamoyl-2-(1-ethyl-3-methyl-1H-pyrazole-5-carboxamido)-7-(3-(2-(3-methoxyazetidin-1-yl)acetamido)propoxy)-1H-benzo[d]imidazol-1-yl)propyl)-2-(1-ethyl-3-methyl-1H-pyrazole-5-carboxamido)-3,4-dihydro-5-oxa-1,2a-diazaacenaphthylene-7-carboxamide], on STING WT variant [1], the “Fold change related to DMSO control WT” value is listed as 7.12. For the same compound, the “Fold change related to DMSO control HAQ” value on STING HAQ variant [2] was found to be 19.89. Further, the EC50 on STING (setting [6]) stood at 4.6 µM.

As for `CCn1nc(C)cc1C(=O)Nc1nc2cc(C(N)=O)cc(OCCCN=C(N(C)C)N(C)C)c2n1CCC[C@H]1COc2cc(C(N)=O)cc3nc(NC(=O)c4cc(C)nn4CC)n1c23` [Example 56, (S)-3-(3-(7-(3-((bis(dimethylamino)methylene)amino)propoxy)-5-carbamoyl-2-(1-ethyl-3-methyl-1H-pyrazole-5-carboxamido)-1H-benzo[d]imidazol-1-yl)propyl)-2-(1-ethyl-3-methyl-1H-pyrazole-5-carboxamido)-3,4-dihydro-5-oxa-1,2a-diazaacenaphthylene-7-carboxamide], at STING WT variant [1], the “Fold change related to DMSO control WT” value came to 6.76. Besides, the “Fold change related to DMSO control HAQ” value at STING HAQ variant [2] is 10.61. In addition, the EC50 at STING (setting [6]) stood at 17.3 µM.

`CCn1nc(C)cc1C(=O)Nc1nc2cc(C(N)=O)cc(OCCCNC(=O)CN3CC(COC)C3)c2n1CCC[C@H]1COc2cc(C(N)=O)cc3nc(NC(=O)c4cc(C)nn4CC)n1c23` [Example 41, (S)-3-(3-(5-Carbamoyl-2-(1-ethyl-3-methyl-1H-pyrazole-5-carboxamido)-7-(3-(2-(3-(methoxymethyl)azetidin-1-yl)acetamido)propoxy)-1H-benzo[d]imidazol-1-yl)propyl)-2-(1-ethyl-3-methyl-1H-pyrazole-5-carboxamido)-3,4-dihydro-5-oxa-1,2a-diazaacenaphthylene-7-carboxamide]: the “Fold change related to DMSO control WT” value on STING WT variant [1] stood at 7.15. Further, the “Fold change related to DMSO control HAQ” value at STING HAQ variant [2] is given as 19.38. At STING (setting [6]), the EC50 came to 8.8 µM.

For `CCn1nc(C)cc1C(=O)Nc1nc2cc(C#N)cc(OCCCNC(=O)CN3CCOCC3)c2n1CCC[C@H]1COc2cc(C#N)cc3nc(NC(=O)c4cc(C)nn4CC)n1c23` [Example 48, (S)—N-(5-cyano-1-(3-(7-cyano-2-(1-ethyl-3-methyl-1H-pyrazole-5-carboxamido)-3,4-dihydro-5-oxa-1,2a-diazaacenaphthylen-3-yl)propyl)-7-(3-(2-morpholinoacetamido)propoxy)-1H-benzo[d]imidazol-2-yl)-1-ethyl-3-methyl-1H-pyrazole-5-carboxamide], the “Fold change related to DMSO control WT” value at STING WT variant [1] is 5.70. The “Fold change related to DMSO control HAQ” value on STING HAQ variant [2] was 7.94. The “hIFNβ ELISA (EC50, μM)” value on STING (setting [5]) was “inactive”.

Turning to `CCn1nc(C)cc1C(=O)Nc1nc2cc(C(N)=O)cc(OCCCNC(=O)CN3CC[C@@H](OC)C3)c2n1CCC[C@H]1COc2cc(C(N)=O)cc3nc(NC(=O)c4cc(C)nn4CC)n1c23` [Example 39, (S)-3-(3-(5-carbamoyl-2-(1-ethyl-3-methyl-1H-pyrazole-5-carboxamido)-7-(3-(2-((R)-3-methoxypyrrolidin-1-yl)acetamido)propoxy)-1H-benzo[d]imidazol-1-yl)propyl)-2-(1-ethyl-3-methyl-1H-pyrazole-5-carboxamido)-3,4-dihydro-5-oxa-1,2a-diazaacenaphthylene-7-carboxamide], the “Fold change related to DMSO control WT” value on STING WT variant [1] came to 11.39. Also, the “Fold change related to DMSO control HAQ” value at STING HAQ variant [2] stood at 16.45. Moreover, on STING (setting [6]), the EC50 was 2.2 µM.

For `CCn1nc(C)cc1C(=O)Nc1nc2cc(C(N)=O)cc(OCCCNC(=O)CN(C)C)c2n1CCC[C@H]1COc2cc(C(N)=O)cc3nc(NC(=O)c4c(F)c(C)nn4CC)n1c23` [Example 52, (S)-3-(3-(5-carbamoyl-7-(3-(2-(dimethylamino)acetamido)propoxy)-2-(1-ethyl-3-methyl-1H-pyrazole-5-carboxamido)-1H-benzo[d]imidazol-1-yl)propyl)-2-(1-ethyl-4-fluoro-3-methyl-1H-pyrazole-5-carboxamido)-3,4-dihydro-5-oxa-1,2a-diazaacenaphthylene-7-carboxamide], on STING WT variant [1], the “Fold change related to DMSO control WT” value came to 11.79. Also, the “Fold change related to DMSO control HAQ” value on STING HAQ variant [2] is listed as 18.32. Further, the EC50 at STING (setting [6]) is more than 50 µM.

`CCn1nc(C)cc1C(=O)Nc1nc2cc(C#N)cc(OCCCNC(=O)CN3CCOCC3)c2n1CCC[C@H]1COc2cc(C(N)=O)cc3nc(NC(=O)c4cc(C)nn4CC)n1c23` [Example 46, (S)-3-(3-(5-cyano-2-(1-ethyl-3-methyl-1H-pyrazole-5-carboxamido)-7-(3-(2-morpholinoacetamido)propoxy)-1H-benzo[d]imidazol-1-yl)propyl)-2-(1-ethyl-3-methyl-1H-pyrazole-5-carboxamido)-3,4-dihydro-5-oxa-1,2a-diazaacenaphthylene-7-carboxamide]: the “Fold change related to DMSO control WT” value on STING WT variant [1] is on record as 10.68. Further, on STING HAQ variant [2], the “Fold change related to DMSO control HAQ” value came out at 12.84. The EC50 on STING (setting [6]) was more than 6.9 µM.

For the compound `CCn1nc(C)cc1C(=O)Nc1nc2cc(C(N)=O)cc(OCCCN3CCOCC3)c2n1CCC[C@H]1COc2cc(C(N)=O)cc3nc(NC(=O)c4cc(C)nn4CC)n1c23` [Example 24, (S)-3-(3-(5-carbamoyl-2-(1-ethyl-3-methyl-1H-pyrazole-5-carboxamido)-7-(3-morpholinopropoxy)-1H-benzo[d]imidazol-1-yl)propyl)-2-(1-ethyl-3-methyl-1H-pyrazole-5-carboxamido)-3,4-dihydro-5-oxa-1,2a-diazaacenaphthylene-7-carboxamide], the “Fold change related to DMSO control WT” value on STING WT variant [3] is 2.70. Besides, the “Fold change related to DMSO control HAQ” value on STING HAQ variant [4] was determined as 56.42. In addition, the concentration for a half-maximal effect (EC50) at STING (setting [6]) stood at 1.1 µM.
